Results reported in ChEMBL document CHEMBL3603789, “N-Lipidated Peptide Dimers: Effective Antibacterial Agents against Gram-Negative Pathogens through Lipopolysaccharide Permeabilization” (J Med Chem, 2015).
Values after ≈ are worked out from the molar mass of the structure shown. Active and inactive are the calls of the source. No cut-off for these calls is given here. Bridge positions count the residues as written; N and C are the ends. Peptide text beside a SMILES is read from it. I, II: the chains in the order shown. * marks the point of attachment. Decanoyl = CCCCCCCCCC(=O)*; Octanoyl = CCCCCCCC(=O)*; Butyryl = CCCC(=O)*

Tests used:
[1] = Toxicity in New Zealand white rabbit erythrocytes assessed as hemolytic activity after 60 mins; format: cell-based, Oryctolagus cuniculus; conditions: erythrocyte, 1 h
[2] = test system: Klebsiella pneumoniae; test: Antibacterial activity against Klebsiella pneumoniae DM4299 after 24 hrs by broth microdilution method; format: functional; conditions: DM4299, 24 h
[3] = test system: Pseudomonas aeruginosa; test: Antibacterial activity against Pseudomonas aeruginosa DM23155 after 24 hrs by broth microdilution method; format: functional; conditions: DM23155, 24 h
[4] = test system: Escherichia coli; test: Antibacterial activity against Escherichia coli ATCC 25922 after 24 hrs by broth microdilution method; format: functional; conditions: ATCC 25922, 24 h
[5] = test system: Pseudomonas aeruginosa; test: Antibacterial activity against Pseudomonas aeruginosa DR18531 after 24 hrs by broth microdilution method; format: functional; conditions: DR18531, 24 h
[6] = test system: Pseudomonas aeruginosa; test: Antibacterial activity against Pseudomonas aeruginosa DM4150R after 24 hrs by broth microdilution method; format: functional
[7] = test system: Pseudomonas aeruginosa; test: Antibacterial activity against Pseudomonas aeruginosa DM23257 after 24 hrs by broth microdilution method; format: functional; conditions: DM23257, 24 h
[8] = test system: Pseudomonas aeruginosa; test: Antibacterial activity against Pseudomonas aeruginosa DM23376 after 24 hrs by broth microdilution method; format: functional; conditions: DM23376, 24 h
[9] = test system: Pseudomonas aeruginosa; test: Antibacterial activity against Pseudomonas aeruginosa DU14476 after 24 hrs by broth microdilution method; format: functional; conditions: DU14476, 24 h
[10] = test system: Pseudomonas aeruginosa; test: Antibacterial activity against Pseudomonas aeruginosa DR5790 after 24 hrs by broth microdilution method; format: functional; conditions: DR5790, 24 h
[11] = test system: Pseudomonas aeruginosa; test: Antibacterial activity against Pseudomonas aeruginosa DR4877 after 24 hrs by broth microdilution method; format: functional; conditions: DR4877, 24 h
[12] = test system: Pseudomonas aeruginosa; test: Antibacterial activity against Pseudomonas aeruginosa ATCC 9027 after 24 hrs by broth microdilution method; format: functional; conditions: ATCC 9027, 24 h
[13] = test system: Pseudomonas aeruginosa; test: Antibacterial activity against Pseudomonas aeruginosa ATCC 27853 after 24 hrs by broth microdilution method; format: functional; conditions: ATCC 27853, 24 h
[14] = test system: Lipopolysaccharide (LPS); test: Displacement of dansylcadaverine from Escherichia coli 0111:B4 LPS at 15 to 30 uM after 5 mins by high-throughput fluorescence displacement assay
[15] = test system: Lipopolysaccharide (LPS); test: Induction of Escherichia coli 0111:B4 LPS neutralization using p-nitroaniline assessed as concentration required to neutralize 50% after 1 hr by limulus amebocyte lysate assay
[16] = test system: Pseudomonas aeruginosa; test: Induction of 1-N-phenylnaphthylamine uptake in Pseudomonas aeruginosa DM23155 at 400 uM after 1 hr by fluorescence assay relative to polymyxin B; format: functional
[17] = test system: Pseudomonas aeruginosa; test: Induction of cytoplasmic membrane depolarization in Pseudomonas aeruginosa DM23155 at 4 times MIC after 1 hr by fluorescence assay; format: functional, organism-based
[18] = Induction of calcein leakage from DOPC artificial membrane at 1:32 ratio of compound to lipid by fluorescence assay; format: physicochemical
[19] = test system: Pseudomonas aeruginosa; test: Antibacterial activity against Pseudomonas aeruginosa DM23155 assessed as log reduction of viable count at 2 times MIC after 30 mins by time-kill assay relative to control; format: functional
[20] = test system: Pseudomonas aeruginosa; test: Antibacterial activity against Pseudomonas aeruginosa DM23155 assessed as log reduction of viable count MIC up to 24 hrs by time-kill assay; format: functional, organism-based
[21] = test system: Pseudomonas aeruginosa; test: Antibacterial activity against Pseudomonas aeruginosa DM23155 assessed as log reduction of viable count at 1 to 2 times MIC by time-kill assay relative to control; format: functional, organism-based
[22] = test system: Pseudomonas aeruginosa; test: Antibacterial activity against Pseudomonas aeruginosa DM23155 assessed as log reduction of viable count at 1 to 2 times MIC after 24 hrs by time-kill assay; format: functional, organism-based
[23] = test system: Pseudomonas aeruginosa; test: Antibacterial activity against Pseudomonas aeruginosa DM23155 after 24 hrs by checkerboard assay in presence of nalidixic acid; format: functional
[24] = test system: Pseudomonas aeruginosa; test: Antibacterial activity against Pseudomonas aeruginosa DM23155 after 24 hrs by checkerboard assay in presence of gentamicin; format: functional
[25] = test system: Pseudomonas aeruginosa; test: Antibacterial activity against Pseudomonas aeruginosa DM23155 after 24 hrs by checkerboard assay in presence of erythromycin; format: functional
[26] = test system: Pseudomonas aeruginosa; test: Antibacterial activity against Pseudomonas aeruginosa DM23155 after 24 hrs by checkerboard assay in presence of streptomycin; format: functional
[27] = test system: Pseudomonas aeruginosa; test: Antibacterial activity against Pseudomonas aeruginosa DM23155 after 24 hrs by checkerboard assay in presence of kanamycin; format: functional
[28] = test system: Escherichia coli; test: Antibacterial activity against Escherichia coli ATCC 25922 after 24 hrs by checkerboard assay in presence of nalidixic acid; format: functional
[29] = test system: Escherichia coli; test: Antibacterial activity against Escherichia coli ATCC 25922 after 24 hrs by checkerboard assay in presence of gentamicin; format: functional
[30] = test system: Escherichia coli; test: Antibacterial activity against Escherichia coli ATCC 25922 after 24 hrs by checkerboard assay in presence of erythromycin; format: functional
[31] = test system: Escherichia coli; test: Antibacterial activity against Escherichia coli ATCC 25922 after 24 hrs by checkerboard assay in presence of streptomycin; format: functional
[32] = test system: Escherichia coli; test: Antibacterial activity against Escherichia coli ATCC 25922 after 24 hrs by checkerboard assay in presence of kanamycin; format: functional
[33] = test system: Lipopolysaccharide (LPS); test: Induction of Pseudomonas aeruginosa serotype 10 LPS neutralization using p-nitroaniline assessed as concentration required to neutralize 50% after 1 hr by limulus amebocyte lysate assay
[34] = test system: Pseudomonas aeruginosa; test: Antibacterial activity against Pseudomonas aeruginosa DM23155 assessed as log reduction of viable count at 2 times MIC after 5 hrs by time-kill assay relative to control; format: functional
[35] = test system: Pseudomonas aeruginosa; test: Antibacterial activity against Pseudomonas aeruginosa DM23155 assessed as log reduction of viable count at 2 times MIC after 24 hrs by time-kill assay; format: functional, organism-based
[36] = test system: Pseudomonas aeruginosa; test: Antibacterial activity against Pseudomonas aeruginosa DM23155 assessed as log reduction of viable count at 1 time MIC after 24 hrs by time-kill assay; format: functional, organism-based
[37] = test system: Pseudomonas aeruginosa; test: Antibacterial activity against Pseudomonas aeruginosa DM23155 assessed as log reduction of viable count at 1 time MIC after 5 hrs by time-kill assay relative to control; format: functional
[38] = test system: Pseudomonas aeruginosa; test: Induction of cytoplasmic membrane disruption in Pseudomonas aeruginosa DM23155 assessed as membrane integrity at 1 to 2 times MIC after 1 hr by fluorescence assay; format: functional
[39] = test system: Pseudomonas aeruginosa; test: Induction of cytoplasmic membrane disruption in Pseudomonas aeruginosa DM23155 assessed as membrane integrity at 2 times MIC after 1 hr by fluorescence assay; format: functional
[40] = Induction of calcein leakage from DOPE/DOPG artificial membrane at 1:32 ratio of compound to lipid by fluorescence assay; format: physicochemical

Row | MIC [2] | MIC [3] | MIC [4] | MIC [5] | MIC [6] | MIC [7] | MIC [8] | MIC [9] | MIC [10] | MIC [11] | MIC [12] | MIC [13] | Activity [14] | EC50 [15] | Activity [18] | SMILES | HC10 [1] | Activity [16] | Activity [17] | further results
1 | 3 µM (≈ 7.12 µg/mL) | 3 µM (≈ 7.12 µg/mL) | 3 µM (≈ 7.12 µg/mL) | 3 µM (≈ 7.12 µg/mL) | 3 µM (≈ 7.12 µg/mL) | 6 µM (≈ 14.2 µg/mL) | 3 µM (≈ 7.12 µg/mL) | 3 µM (≈ 7.12 µg/mL) | 3 µM (≈ 7.12 µg/mL) | 3 µM (≈ 7.12 µg/mL) | 3 µM (≈ 7.12 µg/mL) | 3 µM (≈ 7.12 µg/mL) | 112% | 117 µM | Active | CCCCCCCC(=O)N[C@@H](CCCNC(=N)N)C(=O)NCC(=O)N[C@@H](CCCNC(=N)N)C(=O)N[C@@H](CCCCN)C(=O)NCC(=O)NCC(=O)N[C@@H](CCCNC(=N)N)C(=O)N[C@@H](CCCNC(=N)N)C(=O)NCCCC[C@H](NC(=O)[C@H](CCCNC(=N)N)NC(=O)[C@H](CCCNC(=N)N)NC(=O)CNC(=O)CNC(=O)[C@H](CCCCN)NC(=O)[C@H](CCCNC(=N)N)NC(=O)CNC(=O)[C@H](CCCNC(=N)N)NC(=O)CCCCCCC)C(=O)N[C@@H](CCCCN)C(=O)O (I: Octanoyl-RGRKGGRRKK-OH / II: Octanoyl-RGRKGGRR; amide I:9-II:C) | > 10000 µg/mL | 20% | Active | FC [19]: 3; Activity [20]: Dose-dependent effect; Activity [21]: Active; Activity [22]: Active; fractional inhibitory concentration index (FICI) [23]: 0.56; fractional inhibitory concentration index (FICI) [24]: 0.38; fractional inhibitory concentration index (FICI) [25]: 0.38; fractional inhibitory concentration index (FICI) [26]: 0.56; fractional inhibitory concentration index (FICI) [27]: 0.56; fractional inhibitory concentration index (FICI) [28]: 0.56; fractional inhibitory concentration index (FICI) [29]: 0.38; fractional inhibitory concentration index (FICI) [30]: 1; fractional inhibitory concentration index (FICI) [31]: 0.5; fractional inhibitory concentration index (FICI) [32]: 0.56
2 | 6 µM (≈ 13.6 µg/mL) | 6 µM (≈ 13.6 µg/mL) | 3 µM (≈ 6.79 µg/mL) |  |  |  |  |  |  |  |  |  | 72.4% | 769 µM |  | CCCC(=O)N[C@@H](CCCNC(=N)N)C(=O)NCC(=O)N[C@@H](CCCNC(=N)N)C(=O)N[C@@H](CCCCN)C(=O)NCC(=O)NCC(=O)N[C@@H](CCCNC(=N)N)C(=O)N[C@@H](CCCNC(=N)N)C(=O)NCCCC[C@H](NC(=O)[C@H](CCCNC(=N)N)NC(=O)[C@H](CCCNC(=N)N)NC(=O)CNC(=O)CNC(=O)[C@H](CCCCN)NC(=O)[C@H](CCCNC(=N)N)NC(=O)CNC(=O)[C@H](CCCNC(=N)N)NC(=O)CCC)C(=O)N[C@@H](CCCCN)C(=O)O (I: Butyryl-RGRKGGRRKK-OH / II: Butyryl-RGRKGGRR; amide I:9-II:C) | > 10000 µg/mL | 2.5% |  | EC50 [33]: 345 µM
3 | 3 µM (≈ 6.37 µg/mL) | 6 µM (≈ 12.7 µg/mL) | 6 µM (≈ 12.7 µg/mL) | 3 µM (≈ 6.37 µg/mL) | 6 µM (≈ 12.7 µg/mL) | 10 µM (≈ 21.2 µg/mL) | 6 µM (≈ 12.7 µg/mL) | 6 µM (≈ 12.7 µg/mL) | 6 µM (≈ 12.7 µg/mL) | 6 µM (≈ 12.7 µg/mL) | 6 µM (≈ 12.7 µg/mL) | 6 µM (≈ 12.7 µg/mL) | 84.8% | > 1000 µM |  | N=C(N)NCCC[C@H](NC(=O)CNC(=O)CNC(=O)[C@H](CCCCN)NC(=O)[C@H](CCCNC(=N)N)NC(=O)CNC(=O)[C@@H](N)CCCNC(=N)N)C(=O)N[C@@H](CCCNC(=N)N)C(=O)NCCCC[C@H](NC(=O)[C@H](CCCNC(=N)N)NC(=O)[C@H](CCCNC(=N)N)NC(=O)CNC(=O)CNC(=O)[C@H](CCCCN)NC(=O)[C@H](CCCNC(=N)N)NC(=O)CNC(=O)[C@@H](N)CCCNC(=N)N)C(=O)N[C@@H](CCCCN)C(=O)O (I: H-RGRKGGRRKK-OH / II: H-RGRKGGRR; amide I:9-II:C) | > 10000 µg/mL | 1.9% |  | FC [34]: 10; Activity [35]: Active; Activity [36]: inactive; FC [37]: 2.7
4 | 3 µM (≈ 7.8 µg/mL) | 3 µM (≈ 7.8 µg/mL) | 6 µM (≈ 15.6 µg/mL) | 1.5 µM (≈ 3.9 µg/mL) | 1.5 µM (≈ 3.9 µg/mL) | 3 µM (≈ 7.8 µg/mL) | 3 µM (≈ 7.8 µg/mL) | 3 µM (≈ 7.8 µg/mL) | 3 µM (≈ 7.8 µg/mL) | 6 µM (≈ 15.6 µg/mL) | 3 µM (≈ 7.8 µg/mL) | 3 µM (≈ 7.8 µg/mL) | 131% | 38.1 µM | Active | CCCCCCCCCC(=O)N[C@@H](CCCNC(=N)N)C(=O)NCC(=O)N[C@@H](CCCNC(=N)N)C(=O)N[C@@H](CCCCN)C(=O)N[C@H](C(=O)N[C@H](C(=O)N[C@@H](CCCNC(=N)N)C(=O)N[C@@H](CCCNC(=N)N)C(=O)NCCCC[C@H](NC(=O)[C@H](CCCNC(=N)N)NC(=O)[C@H](CCCNC(=N)N)NC(=O)[C@@H](NC(=O)[C@@H](NC(=O)[C@H](CCCCN)NC(=O)[C@H](CCCNC(=N)N)NC(=O)CNC(=O)[C@H](CCCNC(=N)N)NC(=O)CCCCCCCCC)C(C)C)C(C)C)C(=O)N[C@@H](CCCCN)C(=O)O)C(C)C)C(C)C (I: Decanoyl-RGRKVVRRKK-OH / II: Decanoyl-RGRKVVRR; amide I:9-II:C) | > 10000 µg/mL |  | Active | Activity [38]: >80%; Activity [39]: 51.1%; Activity [40]: Active
